The text below walks through data of PubChem BioAssay AID624491 (Broad Institute, 2012).

In this test the test system is D54 ERlucT glycosylation luciferase reporter, luminescence, 24 h. The experiment in a line: blockers of NLG process in reporter cells – D54 ERlucT cells, luminescence, cherry-picks, dose response (AID 624491).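 Also: signal gain reflects blocked N-linked glycosylation of a luciferase reporter; actives raise luciferase signal so AC26 marks activators of the reporter.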
With `NC(N)=N/N=C/c1ccc2cccc(OCc3ccccc3)c2n1`, the AC26 is 4150 nM.
Take `O=C(c1ccc(CS(=O)c2ccccc2Cl)o1)N1CCN(c2ccccn2)CC1` (stereo not given): the AC26 was 5990 nM.
Next, `CC(=O)O[C@H]1C(=O)[C@@]2(C)C([C@H](OC(=O)c3ccccc3)[C@]3(O)C[C@H](O)C(C)=C1C3(C)C)[C@]1(OC(C)=O)CO[C@@H]1C[C@H]2O` (stereo not given in full): 6460 nM.
Next, `COc1ccc(Cl)cc1NC(=O)CN(C)CC(=O)Nc1ccccc1N1CCOCC1`: 658 nM.
As to `O=C(c1cccc(N2CCCC2=O)c1)N1CCN(c2cccc(Cl)c2)CC1`, the AC26 is 2600 nM.
For the molecule `NC(=O)c1ccc(NC(=O)CN2C(=O)NC(c3ccccc3)(c3ccccc3)C2=O)cc1`, the AC26 is 3410 nM.
`COc1cccc(-c2cc3nc(-c4ccccc4)cc(=O)n3[nH]2)c1`: the AC26 was 7070 nM.
With `O=C(COc1ccc(C(=O)c2ccccc2)cc1)NCc1ccc(F)cc1`, the AC26 was 1870 nM.
Regarding `Nc1ncnc(Sc2ccc(Cl)cc2)c1[N+](=O)[O-]`, the AC26 was 13400 nM.
As for `O=C(CN1C(=O)/C(=C\c2ccc(F)cc2)Oc2ccccc21)N1CCN(c2ccccn2)CC1`, the AC26 was 4740 nM.
Then `COc1ccc(Nc2nc(N3CCCC3)nc3ccccc23)c(OC)c1`, with 1950 nM; and `O=C(c1ccccc1-c1ccccc1)N1CCN(c2ccccn2)CC1`, with 2340 nM.
Then `COc1cc(C2CC(=O)Nc3cc(C)c(C)cc32)cc(OC)c1OC` (stereo not given), with 8880 nM.
Next, `CC(C)c1c(C(=O)Nc2ccccc2)c(-c2ccccc2)c(-c2ccc(F)cc2)n1CC[C@@H](O)C[C@@H](O)CC(=O)O`: 68.2 nM; `O=C(Oc1ccccc1C(=O)Nc1ccccc1)c1ccccc1Br`: 1670 nM; `CCN(CC)CCNc1nc2cc(OC)c(OC)cc2c2nc(-c3ccccc3)nn12`: 1860 nM.
On to `CSc1cccc(NC(=O)CCCOc2cc(=O)n(C)c3ccccc23)c1`, for which the AC26 was 4940 nM.
For `Cc1ccc(-c2nc(NCCN(C)C)c3ccccc3n2)cc1`, the AC26 was 4940 nM.
Then `C=CCOc1ccc(C(=O)Nc2ccccc2C(=O)NCc2cccnc2)cc1`, with 2160 nM; and `Cc1ccc2nc(Cl)c(/C=C/C(=O)c3ccco3)cc2c1`, with 7890 nM; and `O=c1cc(-c2ccccc2)[nH]c2ccc(F)cc12`, with 198 nM.
Take `Cc1cccc(CCNC(=O)CCCOc2cc(=O)n(C)c3ccccc23)c1`: the AC26 was 4450 nM.
Then `COC(=O)c1ccccc1-c1ccc(C(c2c(C)[nH][nH]c2=O)c2c(C)[nH][nH]c2=O)o1`, with 5960 nM; and `CC(C)N(CC(=O)Nc1ccc(Cl)cc1C(F)(F)F)C(=O)CCl`, with 14500 nM.
Then `CCOC(=O)C1=C(Cc2ccc(F)cc2)C(=O)c2ccccc2C1=O`, with 6390 nM; and `O=C(O)CCC/C=C\C[C@@H]1[C@@H](/C=C/[C@@H](O)COc2cccc(Cl)c2)[C@H](O)C[C@@H]1O`, with below 1.2 nM; and `Oc1ccc(CCNc2c3ccccc3nc3ccccc23)cc1O`, with 638 nM.
Next, `Cc1cc(=O)oc2cc(NC(=O)c3cccc(S(C)(=O)=O)c3)ccc12`: 2310 nM.
With `C=CCN=C(SCC(=O)c1ccc(Cl)cc1)c1c(O)n(C)c(=O)n(C)c1=O`, the AC26 was 2340 nM.
Next, `CCOC(=O)c1cc2sccc2n1CC(=O)N1CCc2ccccc21`: 7500 nM.
Consider `CC(=O)Nc1cccc(-c2ccnc3c2CC(C)(C(=O)NCc2cccs2)O3)c1` (stereo not given), for which the AC26 was 1450 nM.
Then `O=C(Nc1ccccc1)N(CCN1CCOCC1)Cc1ccccc1F`, with 1360 nM; and `CCn1c2ccccc2c2cc(NC(=O)c3cc(OC)c(OC)c(OC)c3)ccc21`, with 605 nM.
Then `NNC(=O)c1oc2nc(-c3ccco3)cc(-c3ccco3)c2c1N`, with 4260 nM.
Next, `Cc1ccc(NC(=O)C(Cc2ccccc2)N2C(=O)C3C4CCC(C4)C3C2=O)cc1Cl` (stereo not given): 3240 nM; `Cn1cnc(Sc2ncnc3nc[nH]c23)c1[N+](=O)[O-]`: 1140 nM; `COc1ccc(CC(=O)NCc2ccc(-n3cccc3)cc2)cc1OC`: 825 nM.
As for `COc1ccc(C(=O)NC(=C(Cl)Cl)S(=O)(=O)c2ccc(C)cc2)cc1`, the AC26 was 10200 nM.
Then `COc1ccccc1N1CCN(C(=O)c2[nH]c(C(F)(F)F)nc2-c2ccccc2)CC1`, with 2770 nM; and `CN(C)S(=O)(=O)c1ccc(N2CCCC2)c(C(=O)Nc2ccccc2)c1`, with 957 nM; and `COc1ccc(Nc2nc(-c3c(C)nc4ncccn34)cs2)cc1`, with 17.2 nM.
Next, `Cc1cc(C)c(S(=O)(=O)N(C)CC(=O)N2CCCC2)c(C)c1`: 2910 nM; `CCOc1ccc2cc(/C=C/C(=O)c3ccco3)c(Cl)nc2c1`: 3060 nM; `COc1ccc(C2=NOC(C(=O)NCc3ccc(F)cc3)C2)cc1` (stereo not given): 516 nM.
Then `Oc1cc(NCc2ccc(Cl)cc2)cc2cccnc12`, with 6410 nM.
With `O=C(c1[nH]c(C(F)(F)F)nc1-c1ccccc1)N1CCN(c2ccccc2)CC1`, the AC26 was 395 nM.
Regarding `CCOC(=O)c1c(C)c(C(=O)Nc2cc(F)ccc2F)c(C)n1C`, the AC26 is 12600 nM.
Next, `Cc1cccc(C(=O)Oc2ccccc2/C=N/NC(=O)c2ccc(NC(=O)C(C)(C)C)cc2)c1`: 1550 nM.
Next, `NC(=O)CC(NC(=O)Cc1ccc(Br)cc1)c1ccc(NC2CCC2)c([N+](=O)[O-])c1` (stereo not given): 2760 nM.
In the case of `COc1cc2c(cc1OC)C(c1cccs1)N(C(=S)NC(C)C)CC2` (stereo not given), the AC26 was 252 nM.
Next, `CCCOc1ccccc1C1CC(=O)NC2=C1C(=O)CCC2` (stereo not given): 2250 nM; `COc1cccc(/C=N/NC(=O)c2ccc(N3CCCC3=O)cc2)c1`: 3350 nM; `Cc1[nH]c(C)c(C(=O)/C=C/c2ccc([N+](=O)[O-])cc2)c1C`: 633 nM.
Then `CC1(C(=O)NCc2ccco2)Cc2c(-c3cccc(C(N)=O)c3)ccnc2O1` (stereo not given), with 1450 nM.
With `Cc1ccc2c(c1)C(=O)N1[C@H]3c4cc(C)ccc4OC[C@@H]3[C@H](c3ccccc3)[C@]1(C)C(=O)N2`, the AC26 was 26.4 nM.
Next, `CCOc1ccc(N2C(=O)Nc3ccccc3C2(O)C(=O)N2CCN(c3ccccn3)CC2)cc1` (stereo not given): 880 nM.
For `COc1ccccc1-c1csc(C(NC(C)=O)c2ccc(F)c(F)c2)n1` (stereo not given), the AC26 is 341 nM.
In the case of `COc1ccc(Cl)cc1S(=O)(=O)Nc1ccc2c(c1)n(C)c(=O)n2C`, the AC26 is 1470 nM.
Next, `O=C(Nc1cccc(-c2cn3ccccc3n2)c1)c1cccc(Cl)c1`: 1750 nM.
Regarding `Cc1ccc(N2CCN(C3=NC(=O)/C(=C\c4cn[nH]c4-c4ccccc4)S3)CC2)cc1`, the AC26 was 1350 nM.
Next, `COc1ccc(/C=C2\SC(=S)N(CCC(=O)NC3CCCC3)C2=O)cc1OC`: 6270 nM.
As for `COc1ccc(C2C3=C(COC3=O)Oc3cc4c(cc32)OCO4)cc1OC` (stereo not given), the AC26 was 1780 nM.
Then `COCCOC(=O)c1[nH]c2c(c1C)C(=O)CC(c1ccco1)C2` (stereo not given), with 3540 nM; and `COc1ccc(NC(=O)c2oc3ccccc3c2NC(=O)c2ccco2)cc1`, with 11700 nM; and `CCCOC(=O)c1[nH]c2c(c1C)C(=O)CC(c1cccs1)C2` (stereo not given), with 623 nM.
Then `Cc1cc(C)cc(C(=O)N2CC(=O)Nc3ccccc32)c1`, with 265 nM; and `CCCc1cc(C(=O)N/N=C/c2ccc(C)o2)c2ccccc2n1`, with 1040 nM.
With `CN(C)c1ccc(CNC(=O)C2(C)Cc3c(-c4ccc5c(c4)OCO5)ccnc3O2)cc1` (stereo not given), the AC26 was 2630 nM.
Next, `CCC(c1nc2ccccc2c(=O)n1-c1nc2ccccc2s1)N1C(=O)c2ccccc2C1=O` (stereo not given): 1030 nM; `Cc1nc(Nc2nc(-c3ccccc3)cc(=O)[nH]2)nc2ccccc12`: 1690 nM; `CCN(CC)CCNc1cccc2sc3ccccc3c(=O)c12`: 4840 nM.
Then `COc1cc(F)ccc1-c1csc(C(NC(C)=O)c2cccc(F)c2)n1` (stereo not given), with 206 nM; and `CCN(CCCNC(=O)CCCOc1cc(=O)n(C)c2ccccc12)Cc1ccccc1`, with 3420 nM; and `CC(C)C(=O)Nc1ccc(C(=O)N/N=C/c2cc(Br)cc(Br)c2O)cc1`, with 9890 nM.
On to `Cn1nc(-c2ccccc2)c(CSc2ccccc2Cl)c1Cl`, for which the AC26 was 6120 nM.
Then `c1ccc2cc3c(NCCN4CCOCC4)ccnc3cc2c1`, with 515 nM; and `COc1ccc(C2Nc3ccc4ccccc4c3-c3c2c(=O)oc2ccccc32)cc1` (stereo not given), with 2070 nM; and `COc1cc(-c2noc(C)c2/C=C/c2ccc(N)cc2)cc(OC)c1OC`, with 467 nM.
In the case of `O=C(CCl)Nc1cccc(S(=O)(=O)NC2=NCCC2)c1`, the AC26 is 939 nM.
Then `O=c1[nH]c(=O)c2nc3c4ccccc4c4ccccc4c3nc2[nH]1`, with 392 nM; and `Cc1cc(NC(=O)NC(=O)c2ccccc2NC(=O)CN)ccc1Oc1ncc(Br)cn1`, with 11000 nM; and `Cn1c(=O)c2cc(NC(=O)CCc3ccccc3)ccc2n1-c1ccccc1F`, with 1780 nM.
For `CN(C)CCNC(=O)c1cccc2nc3c(ccc4ccccc43)nc12`, the AC26 was 719 nM.
In the case of `Cc1ccc2nc(-c3ccc(SCC(=O)Nc4nnc(C)s4)nc3)[nH]c2c1`, the AC26 is 4860 nM.
With `COC(=O)c1ccc(S(=O)(=O)N2CCc3ccccc32)cc1`, the AC26 was 10600 nM.
Regarding `COc1ccc2c(c1)C(=O)N1[C@H]3c4cc(Br)ccc4OC[C@@H]3[C@H](c3ccccc3)[C@]1(C)C(=O)N2`, the AC26 is 851 nM.
Next, `CCOC(=O)c1c(C)[nH]c(C(=O)N/N=C/c2ccc(OC)c(OC)c2)c1C`: 2070 nM; `COc1cccc(CNC(=O)COC(=O)c2ccc(-c3ccc(O)cc3)cc2)c1`: 685 nM; `Cc1ccc(C(=O)NCc2nnc(SCC(=O)NC(C)c3ccccc3)n2C)cc1` (stereo not given): 3980 nM.
`CCN(CC)CCOc1ccc2c(c1)C(=NNC(=O)c1ccccn1)c1cc(OCCN(CC)CC)ccc1-2`: the AC26 was 530 nM.
Then `O=C(/C=C/c1cccc([N+](=O)[O-])c1)c1ccc2c(c1)OCCO2`, with 3330 nM; and `CC(=O)NC(=C(Cl)Cl)S(=O)(=O)c1ccccc1`, with 1080 nM.
With `COc1ccc(S(=O)(=O)N2CCCOC2CNC(=O)C(=O)NCCc2ccco2)cc1C` (stereo not given), the AC26 was 9490 nM.
Next, `Cc1ccc(C)c(NC(=S)NC(NC(=O)Cc2cccc3ccccc23)C(Cl)(Cl)Cl)c1` (stereo not given): 1270 nM.
Next, `Cc1cc(NC(=O)CN2C(=O)NC3(CCCCCC3)C2=O)ccc1Br`: 1570 nM.
